Entries after “also recorded” stand apart in the source; their conditions may differ.
Key:
Format in all cases: cell-based, human
IR condensates [1] = assay: tc-PALM of IR cluster/condensate dynamics in HepG2 cells expressing IR-Dendra2; conditions: insulin sensitive cells; 20 mM H2O2
Method: Widefield Live-cell super-resolution imaging was performed in a photo-activation localization microscopy (PALM) approach using a Nikon Eclipse Ti microscope with a 100× oil immersion objective. The 405 nm and 561 nm laser beams were combined in an external platform with customized power densities to image Dendra2-tagged molecules as previously reported (56). Cells were maintained at 37° C. in a temperature-controlled platform during imaging, and the CO2 level was maintained at 5% by Leibovitz's L-15 Medium with no phenol red (ThermoFisher #21083027). In each imaging cycle, a 2400-frame video stream including a (256 pixel)2 region of interest (ROI) was recorded in 20 Hz acquisition rate with the EM-gain setting as 1000 on an Andor iXon Ultra 897 EMCCD. Each pixel conjugates with a (160 nm)2 area on the sample side. After PALM imaging, the Hoechst-stained nuclei of the same ROI were imaged with stronger 405 nm excitation through DAPI filter.
Detection localization. For each frame of a raw image, Gaussian particles were identified by pixelwise test of hypotheses, whose peak positions were individually fitted at subpixel resolution by maximum-likelihood regression with Gauss-Newton method (91). An additional deflation loop was performed to avoid missing dimmer particles when they were overshadowed by neighboring brighter ones. This multi-particle detection localization procedure has been integrated in a published, open-source MATLAB software called MTT (91).
Spatial clustering. DBSCAN and “manual selection” hybridized approach was applied to group spatially clustered detections via the qSR software (92). Firstly, DBSCAN was performed to generalize a proposal map of spatially clustered detections. Given that IR condensates can be tiny and transient, a “loose” parameter setting was used when performing the DBSCAN (length-scale=120 nm, N_min=4). This parameter combination was determined by comparing the rendered super-resolved reconstructions with the color-coded cluster maps until the clustering results visually make sense for most ROIs. Secondly, individual clusters were manually selected based on the clustering proposal map from last step. Some custom MATLAB code was used to reconstruct the IR distribution of each ROI superposed with the corresponding nuclei image, which was further cross-compared with the corresponding cluster map to determine which region each cluster belongs to (i.e., plasma-membrane, cytoplasm, or nucleus).
Temporal clustering. For each spatial cluster, time-correlated PALM (tc-PALM) analysis was performed along the time axis to extract the truly colocalized, time-correlated multimolecule bursting events (11, 13-14). The lifetime of a burst is simply defined as the timespan from the first to the last detections. More details about the quantitative validations and statistics of tc-PALM analysis can be found in NOTES and FIG. 11.
Widefield, live-cell, super-resolution imaging was performed in a photo-activation localization microscopy (PALM) approach using a Nikon Eclipse Ti microscope with a 100× oil immersion objective. The 405 nm and 561 nm laser beams were combined in an external platform with customized power densities to image Dendra2-tagged molecules as previously reported^24. Cells were cultured on imaging dishes (MatTek, P35G-1.5-20-C) and then imaged while maintaining both the temperature at 37° C. with a temperature-controlled platform and the level of CO2 at 5% with Leibovitz's L-15 Medium with no phenol red (Thermo Fisher, 21083027). During each imaging cycle, a 2400-frame video stream including a (256 pixel)^2 region of interest (ROI) was recorded in 20 Hz acquisition rate with the EM-gain setting as 1000 on an Andor iXon Ultra 897 EMCCD. Each pixel conjugates with a (160 nm)^2 area on the sample side. After PALM imaging, the Hoechst-stained nuclei of the same ROI were imaged using a stronger 405 nm excitation through DAPI filter. […] Following a 5-minute wait, the cells were imaged for 15-20 minutes.

IR condensates [2] = assay: Imaging of IR puncta/condensates (immunofluorescence, IR-GFP) in HepG2 cells
Method: For insulin sensitivity and resistance experiments in HepG2 cells, cells were washed with EMEM once and cultured in EMEM for two days. […] To wash out insulin, cells were washed in EMEM seven times, which includes three quick washes, three 5 min washes and a long 20 minute-wash in EMEM at 37° C. In order to investigate insulin response, cells were acutely treated for 5 min with insulin diluted in EMEM supplemented with 1.25% fatty acid-free BSA at 37° C. with 5% CO2 in a humidified incubator.
Metformin (SIGMA, D150959-5G) was resuspended in sterile water to a concentration of 1M and diluted to the reported concentrations in the figures in cell media. […]
HepG2 cells, human liver spheroids and human tissue liver sections were fixed in 4% PFA (VWR, BT140770-10X10) in PBS for 10 min at room temperature. Cells were washed in PBS three times for 5 min and then blocked with 4% IgG-free BSA (VWR, 102643-516) for 15-60 min at room temperature. Cells were then incubated with 1:500 primary antibody in 4% IgG-free BSA at 4° C. overnight. The next day, cells were washed three times with PBS and incubated with 1:500 secondary antibodies in 4% IgG-free BSA at room temperature for 1 hr covered in foil. Cells were washed three times with PBS for 5 min. DNA was stained using 1:5000 Hoechst in PBS for 5 min at RT. Cells were washed three times with PBS for 5 min, stored at 4° C. until imaging. For tissue sections, samples were mounted using Vectashield mounting media (Vector Laboratories, Inc, H-1000). LSM880 microscope with Airyscan detector (ZEISS) was used for image acquisition. Images were then processed using Fiji/ImageJ v2.1.0/153c.
Cells expressing endogenous IR tagged with GFP were grown on 35 mm glass bottom dishes (MatTek Corporation, P35G-1.5-20-C). Cells were imaged at 37° C. using the SM880 Microscope with Airyscan detector with 63× objective and Zen Black software (ZEISS) at the W.M. Keck Microscopy Facility, MIT. Images were then processed using Fiji/ImageJ v2.1.0/153c.
To quantify IR fluorescent signal in puncta, Fiji/ImageJ v2.1.0/153c was used. A circle or an oval was drawn around IR puncta using the oval selection tool and the average fluorescence intensity in the circle/oval (=in the puncta) was determined using the measure tool on Fiji. Background was then subtracted as previously described. To quantify IR fluorescent signal at puncta in various cellular compartments, applicant identified the location of the plasma membrane, cytoplasm, nucleus and RNA FISH spots as follows. The plasma membrane location was identified based on IR immunofluorescence signal, IR-GFP fluorescent signal or CK18 immunofluorescence signal or cell edge. The nucleus was determined by the Hoechst stain for immunofluorescence and tc-PALM experiments or by IR-GFP fluorescence when HepG2 cells expressing IR-GFP were imaged. Given the overlap between Hoechst fluorescence and GFP fluorescence, artefactual green fluorescence coming from the Hoechst confounded IR puncta identification in the nucleus. Since the differences in IR puncta intensity and concentration between cytoplasm and nucleus in HepG2 cells was clear, nuclear outline was easily drawn based on IR-GFP fluorescent signal. Cytoplasm was considered the region between the plasma membrane and the nucleus. RNA FISH spots were identified based on RNA FISH probe fluorescence. Within the FISH spot, IR intensity was measured using the measure tool.
To estimate the number of IR puncta at the plasma membrane, cytoplasm, nucleus or in entire cells, IR puncta were initially counted in a cell slice using Fiji. The number obtained from the cell slice was then multiplied based on the estimated size of the plasma membrane, cytoplasm, nucleus or entire cell, which were obtained considering the length and width of the cell under investigation and the estimated height (˜5 um). […]

[3] = test system: transcriptional condensates at SMAD7; assay: IR-GFP and SMAD7 intronic RNA FISH colocalization in HepG2 cells; conditions: insulin sensitive cells; H2O2; 3 nM insulin 5 min (FIG. 6E)

`OO` [H2O2, reference compound] was tested, and the IR condensate dynamics (IR condensates [1]) was “caused reduced IR condensate dynamics; also recorded: altered IR condensate dynamics”, the “incorporation of IR into condensates with insulin stimulation” value (IR condensates [2]; insulin sensitive cells, 20 mM H2O2 for 30 min) was “caused a reduction in the incorporation of IR into condensates with insulin stimulation” and the “IR incorporation in transcriptional condensates” value [3] was “caused a reduction in IR incorporation in transcriptional condensates”.
`CC(=O)N[C@@H](CS)C(=O)O` [NAC, N-acetyl cysteine, reference compound] was tested, and the “IR condensates defects (signal intensity and lifetime)” value (IR condensates [2]; insulin-resistant cells, 1 mM NAC 24 hours (FIGS. 19E-19F, 40B)) was “partially rescued IR condensates defects”.

Source: patent US20250186379A1, “METHODS AND AGENTS FOR DECREASING INSULIN RESISTANCE” (Whitehead Institute for Biomedical Research, priority 2021, published 2025)
